Test results reported in article PMC7496286, “The Selectivity of Fosfosal for STAT5b over STAT5a is Mediated by Arg566 in the Linker Domain” (Chembiochem, 2020).

Assays:
STAT5a Trp566Arg = target: T1, STAT5a Trp566Arg (Homo sapiens, UniProt P42229, W566R); assay: FP-based competitive binding assay, STAT5a Trp566Arg
T1 construct: His; made in house
T1 sequence (P42229 1-794 W566R): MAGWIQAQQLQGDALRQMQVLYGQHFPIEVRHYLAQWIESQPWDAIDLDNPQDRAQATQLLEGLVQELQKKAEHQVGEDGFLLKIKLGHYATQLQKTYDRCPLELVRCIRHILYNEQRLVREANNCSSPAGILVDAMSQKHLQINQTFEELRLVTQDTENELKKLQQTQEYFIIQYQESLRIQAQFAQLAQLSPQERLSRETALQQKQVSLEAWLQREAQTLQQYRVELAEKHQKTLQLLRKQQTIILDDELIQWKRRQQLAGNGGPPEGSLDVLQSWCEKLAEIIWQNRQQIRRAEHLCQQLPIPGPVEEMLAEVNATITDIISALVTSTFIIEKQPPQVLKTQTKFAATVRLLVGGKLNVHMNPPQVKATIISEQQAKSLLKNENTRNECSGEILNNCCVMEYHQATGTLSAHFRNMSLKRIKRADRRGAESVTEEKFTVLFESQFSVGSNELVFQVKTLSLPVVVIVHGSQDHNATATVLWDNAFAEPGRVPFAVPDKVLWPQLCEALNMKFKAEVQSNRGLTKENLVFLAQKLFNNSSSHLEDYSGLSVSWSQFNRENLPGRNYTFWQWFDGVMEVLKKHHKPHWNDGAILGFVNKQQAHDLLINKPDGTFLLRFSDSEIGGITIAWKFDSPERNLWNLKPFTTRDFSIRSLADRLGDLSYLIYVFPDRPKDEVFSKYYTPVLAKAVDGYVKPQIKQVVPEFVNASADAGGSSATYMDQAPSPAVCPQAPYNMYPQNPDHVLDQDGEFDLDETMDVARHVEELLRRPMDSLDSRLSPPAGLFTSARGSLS
Method: (§1) Fluorescence polarization assays
(§2) The ability of test compounds to displace 5-carboxyfluorescein-GY(PO3H2)LVLDKW (final concentration: 10 nM) from the SH2 domain of STAT5a/b proteins was analyzed. Proteins […]
(§3) was applied in dilution series comprising the following concentrations: 0.024 – 200 µM […]
(§4) and 0.146 – 600 µM (STAT5b Arg566Glu), respectively. The assays were performed in buffer containing 10 mM Tris, 50 mM NaCl, 1 mM DTT, 1 mM EDTA and 0.1% (v/v) NP-40. Fosfosal was dissolved in DMSO. STAT5a/b proteins and fosfosal were incubated at room temperature for 1 h before adding peptide. Samples were transferred to 384-well microtiter plates and fluorescence polarization was read after a further 1 h incubation time. All measurements were performed in triplicate (n=3), except for STAT5b (n=6) and STAT5a Trp566Arg (n=4). Percent binding was calculated based on a logarithmic curve fit using OriginPro 8G software. IC50 values were converted to Ki values using the published equation.[4] […]
(§5) [4] Z. Nikolovska-Coleska, R. Wang, X. Fang, H. Pan, Y. Tomita, P. Li, P. P. Roller, K.
(§6) Krajewski, N. G. Saito, J. A. Stuckey, S. Wang, Anal. Biochem. 2004, 332, 261-273.

[1] = target: T2, STAT5b-6M (Gln636Pro/Met639Asn/Phe640Leu/Met644Lys/Asn664Ser/Tyr679Phe) (Homo sapiens, UniProt P51692, F640L/M639N/M644K/N664S/Q636P/Y679F); assay: FP-based competitive binding assay, STAT5b-6M
T2 construct: His; made in house
T2 sequence (P51692 1-787 Q636P/M639N/F640L/M644K/N664S/Y679F): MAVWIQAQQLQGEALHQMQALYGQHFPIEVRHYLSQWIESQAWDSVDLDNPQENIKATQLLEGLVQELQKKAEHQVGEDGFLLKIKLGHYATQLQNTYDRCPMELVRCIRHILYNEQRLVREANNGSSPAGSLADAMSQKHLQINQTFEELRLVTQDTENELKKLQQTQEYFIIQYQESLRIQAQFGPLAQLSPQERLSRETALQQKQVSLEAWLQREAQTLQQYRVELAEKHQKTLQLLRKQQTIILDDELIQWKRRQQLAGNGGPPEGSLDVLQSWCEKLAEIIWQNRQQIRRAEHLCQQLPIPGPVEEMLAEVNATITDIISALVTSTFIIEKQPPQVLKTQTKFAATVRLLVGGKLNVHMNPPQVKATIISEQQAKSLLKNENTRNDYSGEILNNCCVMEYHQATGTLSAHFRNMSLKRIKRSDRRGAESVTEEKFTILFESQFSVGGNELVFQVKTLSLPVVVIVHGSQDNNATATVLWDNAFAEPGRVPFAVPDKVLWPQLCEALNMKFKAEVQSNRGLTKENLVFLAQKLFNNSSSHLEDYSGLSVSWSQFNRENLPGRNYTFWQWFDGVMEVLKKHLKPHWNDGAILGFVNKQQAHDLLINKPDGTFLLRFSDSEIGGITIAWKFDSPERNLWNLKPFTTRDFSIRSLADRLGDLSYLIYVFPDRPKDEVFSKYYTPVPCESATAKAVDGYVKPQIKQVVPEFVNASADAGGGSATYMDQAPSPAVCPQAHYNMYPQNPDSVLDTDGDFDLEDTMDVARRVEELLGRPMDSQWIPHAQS
Method: as §1, §2, §3, §4, §5, §6

IC50 (STAT5a Trp566Arg; STAT5a Trp566Arg) | Ki (STAT5a Trp566Arg; STAT5a Trp566Arg, Ki calculated from IC50, n=4) | increase of activity against STAT5a Trp566Arg compared to wild type STAT5a (STAT5a Trp566Arg; ratio of Ki values) | IC50 ([1]; STAT5b-6M) | Ki ([1]; STAT5b-6M, Ki calculated from IC50) | increase of activity against STAT5b-6M compared to wild type STAT5b ([1]; ratio of Ki values) | Compound | Kd (STAT5a Trp566Arg) | Kd [1]
– | – | – | – | – | – | CC(C)C[C@H](NC(=O)[C@H](Cc1ccc(OP(=O)(O)O)cc1)NC(=O)CNC(=O)c1ccc2c(c1)C(=O)OC21c2ccc(O)cc2Oc2cc(O)ccc21)C(=O)N[C@H](C(=O)N[C@@H](CC(C)C)C(=O)N[C@@H](CC(=O)O)C(=O)N[C@@H](CCCCN)C(=O)N[C@@H](Cc1c[nH]c2ccccc12)C(=O)O)C(C)C [5-carboxyfluorescein-GY(PO3H2)LVLDKW] | 0.043 µM | 0.085 µM
21 ± 1.5 µM | 10.2 ± 0.7 µM | 14 fold | 21.3 ± 1.2 µM | 10.7 ± 0.6 µM | ~3 fold | O=C(O)c1ccccc1OP(=O)(O)O [fosfosal, O‐phosphorylated salicylic acid] | – | –
